# Laboratory results published in patent US9096589B2, “Heteroaromatic phenylimidazole derivatives as PDE10A enzyme inhibitors” (H. Lundbeck A/S, priority 2009, dated 2015).
# Target: PDE10A (Homo sapiens (Human), UniProt Q9Y233)
# Test: PDE10A inhibition assay
# Assay type: biochemical
# Method: Active PDE10A enzyme is prepared in a number of ways for use in PDE assays (Loughney, K. et al. Gene 1999, 234, 109-117; Fujishige, K. et al. Eur J. Biochem. 1999, 266, 1118-1127 and Soderling, S. et al. Proc. Natl. Acad. Sci. 1999, 96, 7071-7076). PDE10A can be expressed as full-length proteins or as truncated proteins, as long as they express the catalytic domain. PDE10A can be prepared in different cell types, for example insect cells or E. coli. An example of a method to obtain catalytically active PDE10A is as follows: The catalytic domain of human PDE10A (amino acids 440-779 from the sequence with accession number NP 006652) is amplified from total human brain total RNA by standard RT-PCR and is cloned into the BamH1 and Xho1 sites of the pET28a vector (Novagen). Expression in coli is performed according to standard protocols. Briefly, the expression plasmids are transformed into the BL21(DE3) E. coli strain, and 50 mL cultures inoculated with the cells allowed to grow to an OD600 of 0.4-0.6 before protein expression is induced with 0.5 mM IPTG. Following induction, the cells are incubated overnight at room temperature, after which the cells are collected by centrifugation. Cells expressing PDE10A are resuspended in 12 mL (50 mM TRIS-HCl-pH8.0, 1 mM MgCl2 and protease inhibitors). The cells are lysed by sonication, and after all cells are lysed, TritonX100 is added according to Novagen protocols.
# A PDE10A assay may for example, be performed as follows: The assay is performed in 60 uL samples containing a fixed amount of the relevant PDE enzyme (sufficient to convert 20-25% of the cyclic nucleotide substrate); a buffer (50 mM HEPES7.6; 10 mM MgCl2; 0.02% Tween20), 0.1 mg/ml BSA, 225 pCi of ^3H-labelled cyclic nucleotide substrate, tritium labeled cAMP to a final concentration of 5 nM and varying amounts of inhibitors. Reactions are initiated by addition of the cyclic nucleotide substrate, and reactions are allowed to proceed for one hr at room temperature before being terminated through mixing with 15 uL 8 mg/mL yttrium silicate SPA beads (Amersham). The beads are allowed to settle for one hr in the dark before the plates are counted in a Wallac 1450 Microbeta counter. The measured signal can be converted to activity relative to an uninhibited control (100%) and IC50 values can be calculated using the Xlfit extension to EXCEL.
# Chain of PDE10A (Q9Y233 716-1055): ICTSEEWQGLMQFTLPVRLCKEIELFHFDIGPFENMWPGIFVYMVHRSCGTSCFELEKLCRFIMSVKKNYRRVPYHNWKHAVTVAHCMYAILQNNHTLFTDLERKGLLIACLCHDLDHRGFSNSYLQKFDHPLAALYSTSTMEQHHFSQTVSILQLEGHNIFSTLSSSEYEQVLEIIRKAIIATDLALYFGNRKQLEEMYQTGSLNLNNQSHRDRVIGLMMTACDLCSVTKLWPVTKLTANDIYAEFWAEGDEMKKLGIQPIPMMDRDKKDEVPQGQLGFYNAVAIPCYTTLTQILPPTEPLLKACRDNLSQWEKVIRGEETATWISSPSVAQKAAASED
row,SMILES,IC50 [nM]
1,"Cc1cc(C)n2cc(/C=C/c3nc(-c4cccs4)cn3COCC[Si](C)(C)C)nc2n1 [5,7-Dimethyl-2-{(E)-2-[4-thiophen-2-yl-1-(2-trimethylsilanyl-ethoxymethyl)-1H-imidazol-2-yl]-vinyl}-imidazo[1,2-a]pyrimidine]",81
2,"Cc1ncc(C)n2nc(CCc3nc(-c4cccnc4)cn3C)nc12 [5,8-Dimethyl-2-[2-(1-methyl-4-pyridin-3-yl-1H-imidazol-2-yl)-ethyl]-[1,2,4]triazolo[1,5-a]pyrazine]",8.9
3,"Cc1ccc(C)n2nc(CCc3nc(-c4cccnc4)cn3C)nc12 [5,8-Dimethyl-2-[2-(1-methyl-4-pyridin-3-yl-1H-imidazol-2-yl)-ethyl]-[1,2,4]triazolo[1,5-a]pyridine]",5.7
4,"Cc1ncc(C)n2nc(CCc3nc(-c4nccs4)cn3C)nc12 [5,8-Dimethyl-2-[2-(1-methyl-4-thiazol-2-yl-1H-imidazol-2-yl)-ethyl]-[1,2,4]triazolo[1,5-a]pyrazine]",2.7
5,"Cc1ncc(C)n2nc(CCc3nc(-c4cncs4)cn3C)nc12 [5,8-Dimethyl-2-[2-(1-methyl-4-thiazol-5-yl-1H-imidazol-2-yl)-ethyl]-[1,2,4]triazolo[1,5-a]pyrazine]",6.9
6,"Cc1ccc(-c2cn(C)c(CCc3nc4c(C)ncc(C)n4n3)n2)o1 [5,8-Dimethyl-2-{2-[1-methyl-4-(5-methyl-furan-2-yl)-1H-imidazol-2-yl]-ethyl}-[1,2,4]triazolo[1,5-a]pyrazine]",6.8
7,"Cc1ccc(-c2cn(C)c(CCc3nc4c(C)ccc(C)n4n3)n2)o1 [5,8-Dimethyl-2-{2-[1-methyl-4-(5-methyl-furan-2-yl)-1H-imidazol-2-yl]-ethyl}-[1,2,4]triazolo[1,5-a]pyridine]",4.2
8,"Cc1cccc2nc(CCc3nc(-c4cccnc4)cn3C)nn12 [5-Methyl-2-[2-(1-methyl-4-pyridin-3-yl-1H-imidazol-2-yl)-ethyl]-[1,2,4]triazolo[1,5-a]pyridine]",71
9,"Cc1cccc2nc(CCc3nc(-c4cncs4)cn3C)nn12 [5-Methyl-2-[2-(1-methyl-4-thiazol-5-yl-1H-imidazol-2-yl)-ethyl]-[1,2,4]triazolo[1,5-a]pyridine]",39

# These reach a lower IC50. Values come first.
row,IC50 [nM],SMILES
1,2.3,"Cc1ccc(C)n2nc(CCc3nc(-c4nccs4)cn3C)nc12 [5,8-Dimethyl-2-[2-(1-methyl-4-thiazol-2-yl-1H-imidazol-2-yl)-ethyl]-[1,2,4]triazolo[1,5-a]pyridine]"
2,1.29,"Cc1ncc(C)n2nc(CCc3nc(-c4cscn4)cn3C)nc12 [5,8-Dimethyl-2-[2-(1-methyl-4-thiazol-4-yl-1H-imidazol-2-yl)-ethyl]-[1,2,4]triazolo[1,5-a]pyrazine]"
3,1,"Cc1ccc(C)n2nc(CCc3nc(-c4cccs4)cn3C)nc12 [5,8-Dimethyl-2-[2-(1-methyl-4-thiophen-2-yl-1H-imidazol-2-yl)-ethyl]-[1,2,4]triazolo[1,5-a]pyridine]"
4,0.55,"Cc1ncc(C)n2nc(CCc3nc(-c4ccncc4)cn3C)nc12 [5,8-Dimethyl-2-[2-(1-methyl-4-pyridin-4-yl-1H-imidazol-2-yl)-ethyl]-[1,2,4]triazolo[1,5-a]pyrazine]"
5,0.52,"Cc1ncc(C)n2nc(CCc3nc(-c4cnccn4)cn3C)nc12 [5,8-Dimethyl-2-[2-(1-methyl-4-pyrazin-2-yl-1H-imidazol-2-yl)-ethyl]-[1,2,4]triazolo[1,5-a]pyrazine]"
6,0.44,"Cc1ncc(C)n2nc(CCc3nc(-c4cncnc4)cn3C)nc12 [5,8-Dimethyl-2-[2-(1-methyl-4-pyrimidin-5-yl-1H-imidazol-2-yl)-ethyl]-[1,2,4]triazolo[1,5-a]pyrazine]"
7,0.4,"Cc1ccc(C)n2nc(CCc3nc(-c4cscn4)cn3C)nc12 [5,8-Dimethyl-2-[2-(1-methyl-4-thiazol-4-yl-1H-imidazol-2-yl)-ethyl]-[1,2,4]triazolo[1,5-a]pyridine]"
8,0.39,"Cc1ncc(C)n2nc(CCc3nc(-c4cccs4)cn3C)nc12 [5,8-Dimethyl-2-[2-(1-methyl-4-thiophen-2-yl-1H-imidazol-2-yl)-ethyl]-[1,2,4]triazolo[1,5-a]pyrazine]"
